Test results taken from patent US12636291B2, “Compositions and methods relating to use of agonists of ALPHA5-containing GABAA receptors” (Centre for Addiction and Mental Health, priority 2019, dated 2026).

Legend:
old mice = assay: Spontaneous alternation in the Y-Maze (working memory), normal aging; assay type: in vivo, mouse; settings: GL-II-73 in drinking water 8 weeks (30 mg/kg) vs old mice vehicle (52.6%; young 79.6%), p=0.01
From the text: The percentage of alternation during the Y maze test can be considered as an index of working memory performance (50% of alternation corresponding to a random alternation rate). […] ANOVA analysis indicates a significant difference between all groups (F(2;25)=11.34; p=0.0003).
Animals: For the experiments described above, young (n=11, age 2 months) and old male mice (N=23) were purchased from Charles River. Old mice were obtained at the age of 9-10 months and were kept in the animal facility until they reached the age of 22 months. Young mice (2 months old) were purchased when old mice had already reached the age of 22 months. All animals were single housed. Experiments were performed on mice aged 2 months (“young”) or 22 months (“old”) at the beginning of the experimental protocol. The second set of experiments with the Washout group included 8 young mice and 22 old mice. Old mice were split into 3 groups of 7-8 between “Old”, “Old-treated” and “Old-Washout”. Finally, the pilot with the 5×FAD mice was performed with 15 heterozygote 5×FAD mice, bred in the animal facility of the Centre for Addiction and Mental Health, Toronto (ON, Canada). […]
(§1) Spontaneous alternation in the Y-Maze: Mice were tested in a Y maze test as an assessment of working memory. […] The alternation rate was calculated and was expressed as a percentage: […]

heterozygous 5×FAD mice = assay: Spontaneous alternation in the Y-Maze, 5×FAD Alzheimer's disease model pilot; assay type: in vivo, mouse; settings: 6 months of age, acute i.p. 10 mg/kg vs vehicle, FIG. 23
Procedure: A pilot study was performed in the 5×FAD mouse Alzheimer's disease model system using 15 heterozygous animals tested from the age of 4 to 6 months. The same animals were tested monthly for spontaneous alternation in the Y-Maze test. When they reached the age of 6 months, 50% of the animals were injected i.p. with vehicle or with GL-II-73 (10 mg/kg).
Animals: For the experiments described above, young (n=11, age 2 months) and old male mice (N=23) were purchased from Charles River. Old mice were obtained at the age of 9-10 months and were kept in the animal facility until they reached the age of 22 months. Young mice (2 months old) were purchased when old mice had already reached the age of 22 months. All animals were single housed. Experiments were performed on mice aged 2 months (“young”) or 22 months (“old”) at the beginning of the experimental protocol. The second set of experiments with the Washout group included 8 young mice and 22 old mice. Old mice were split into 3 groups of 7-8 between “Old”, “Old-treated” and “Old-Washout”. […]
as §1

SV129 mice = assay: Neurogenesis (proliferation, survival, maturation) in the SV129 mouse model; assay type: in vivo; settings: compared to VEH
From the text: We next assessed the effects of GL-II-73 on neurogenesis using the SV129 mouse model Kim et al. 2017. Neural Plasticity, doi.org.10.1155/2017/5863258. Specifically, we assessed the effects of treatment on neuronal cell proliferation, survival, and maturation. It is now recognized that neurogenesis occurs not only during development, but also in the adult brain. […] Specifically, adult neurogenesis is known to occur in three regions in the mammalian brain: (i) the subgranular zone (SGZ) of the dentate gyrus in the hippocampus, which is a region that is involved in regulating learning and memory; (ii) the subventricular zone (SVZ), which is situated throughout the lateral walls of the brain's lateral ventricles; and (ii) the amygdala. New neurons born in the SGZ migrate into the granule cell layer of the dentate gyrus and eventually become granule cells. These newborn neurons integrate into the existing circuitry and receive functional input. Adult neurogenesis in the hippocampus is therefore defined as the progression from neural stem cell to mature dentate granule neuron. All stages of adult neurogenesis are regulated by physiological activity, including the proliferation, differentiation, fate determination of adult neural stem cells (NSCs) and progenitors, and the survival, maturation, and integration of newborn neurons.
The stages of neurogenesis can be broken down into (i) proliferation, (ii) survival of the newly formed cells, and (iii) their maturation. Each can be evaluated using specific markers for proliferation, survival, and maturation. […] BrdU can be used to show survival of the newly proliferating cells since it is incorporated into the newly synthesized DNA of replicating cells and is then maintained in the newly formed cells. Thus, quantitative immunohistochemistry against BrdU is used as a proxy of survival. Finally, doublecortin can be used as a proxy of maturation. Previous studies have shown that all steps of neurogenesis were down regulated in the SV129 mice, and further that chronic treatment with fluoxetine, a first line monoaminergic antidepressant, increased the neurogenesis in this mouse model. We therefore used this model system to assess the effects of chronic treatment with GL-II-73 on neurogenesis.
Fluoxetine treatment was used as a positive control in each experiment.

SMILES: C#Cc1ccc2c(c1)C(c1ccccc1F)=N[C@H](C)c1c(C(=O)N(C)C)ncn1-2 (stereo in doubt) [GL-II-73, 8-ethynyl-6-(2-fluorophenyl)-N,N,4-trimethyl-4H-benzo[f]imidazo[1,5-a][1,4]diazepine-3-carboxamide]
- alternation rate in the Y maze test (old mice): higher alternation rate than old mice receiving only vehicle
- alternation performance in the Y-Maze test (heterozygous 5×FAD mice): a reversal of this decrease in alternation performance in the GL-II-73 treated group, although also not reaching statistical significance
- proliferation: number of K167-positive cells (SV129 mice; chronic treatment (4 weeks), FIG. 13A, FLX p<0.001, GL-II-73 p<0.05): increased the number of K167-positive cells
- survival: BrdU-positive cells (SV129 mice; chronic treatment (4 weeks), FIG. 13B): increased survival as shown by the increased in BrdU labeling in SV129 mice, as shown in FIG. 13B, even though not reaching significance
- maturation index (DCX+cells possessing tertiary dendrites over the total DCX+cells) (SV129 mice; chronic treatment, FIG. 14B, ps<0.01): an increase with both FLX and GL-II-73
